Paper PMC3305890, “Synthesis and pharmacological characterization of potent, selective, and orally bioavailable isoindoline class dipeptidyl peptidase IV inhibitors” (Organic and Medicinal Chemistry Letters, 2011)
pIC50: −log10 of the molar value. Like-named read-outs stand apart in the source and are kept apart here. Blank lines part the entries; values can stand above or below the molecule they belong to.

Assays:
[1] = Pharmacokinetics (PK) in SD rats; format: in vivo, Sprague-Dawley (SD) rats; details: for AUC(0-t): read-out: AUC 0-9 h
Description: Sprague-Dawley (SD) rats were housed under standard conditions and allowed free access to water and a commercial diet. On the day before the experiment, rats were fasted overnight and for the first 12 h of the experiment. […] Blood samples were collected from the jugular vein of each animal with a heparinized syringe under diethyl ether anesthesia at serial time points for 24 h after drug administration. Plasma was obtained by centrifugation at 4°C and stored at -70°C until analysis. Protein precipitation was carried out by the addition of the internal standard solution (70% CH3CN with 0.2% acetic acid) to samples. The tubes underwent vigorous shaking and centrifugation for 5 min; then the supernatant was subjected to LC/MS/MS analysis. Peak areas were determined using Xcalibur® software (Thermo Electron Corporation, UK) and AUC values were calculated by the trapezoidal rule.

CYP3A = CYP3A enzyme induction in rat hepatocytes (testosterone 6β-hydroxylation); format: in vitro ADME; details: rat hepatocytes, 1, 10, 50 μM, 2 days
Description: Enzyme induction was evaluated as follows: Hepatocytes isolated from male SD rats were maintained in culture for 1 day before treatment with the test compound or P-450 inducers. The cells were treated with the test compound (1, 10, 50 μM), β-naphthoflavone (10 μM, CYP1A inducer), phenobarbital (50 μM, CYP2B inducer), dexamethasone (10 μM, CYP3A inducer), or vehicle (0.1% DMSO final volume; used as negative control) for 2 days.
Induction of CYP1A, CYP2B, and CYP3A enzymes was determined based on measurements of 7-ethoxyresorufin O-dealkylation, 7-pentoxyresorufin O-dealkylation, and testosterone 6β-hydroxylation, respectively. Assays were started by the addition of Krebs-Henseleit buffer containing 8 μM 7-ethoxyresorufin, 10 μM 7-pentoxyresorufin, or 250 μM testosterone at a volume of 100 μL per well. After incubation at 37°C for 30 min, aliquots were removed and analyzed by fluorometry (an excitation wavelength of 538 nm and an emission wavelength of 590 nm) or LC/MS/MS to determine the quantities of metabolites formed. Any test compound causing a dose-dependent change equal to or greater than 10% of the positive control (see formula below) was considered an enzyme inducer.
% positive control=(activity of test - compound treated cells - activity of negative control)/(activity of positive control - activity of negative control)×100

[2] = Metabolic stability in human liver microsomes; format: in vitro ADME; details: read-out: CL'int Human (converted)
Description: (§1) The incubation mixture containing 0.25 mg of rat or human liver microsomes was preincubated with an NADPH-generating system for 5 min at 37°C. The reaction was started by the addition of 5 μL of a DMSO solution containing the test compound (5 μM). At t = 0 and at two additional time points between 0 and 30 min, aliquots (100 μL) were removed and added to termination mixtures (CH3CN). Proteins were sedimented by centrifugation and an aliquot of the supernatant was analyzed by LC/MS/MS.
(§2) In determinations of the in vitrot1/2, the analyte/ISTD peak area ratio was converted to percentage of drug remaining by assigning a value of 100% to the peak area ratio at t = 0. The slope of the regression line fitted to the log (percentage remaining) versus incubation time relationship (-k) was used in the conversion of raw data to the in vitrot1/2 value. In vitro CLint was calculated using the following formula.
(§3) CLint=0.693/Invitro t1/2×mL incubation/mg microsomes×45 mg microsomes/mg liver×[…] (b.w.)

plasma DPP-IV = molecular target: T1, plasma DPP-IV (Rattus norvegicus, UniProt P14740); assay: Inhibition of rat plasma DPP-IV ex vivo during OGTT; format: in vivo, Wistar/ST rats; details: for inhibition at 1 mg/kg: 1 mg/kg oral
T1 construct: from tissue; host or cells: plasma of Wistar/ST rats
Description: After 30 min (t = 0), oral glucose challenges (1 g/kg) were conducted and then plasma DPP-IV activities and blood glucose levels were monitored at various intervals over a 2 h period. […].
(§4) All procedures were approved by the Sanwa Kagaku Kenkyusho Institutional Animal Care and Use Committee. 7-week old Wistar/ST rats were housed under standard conditions and allowed free access to water and a commercial diet for at least 5 days. […] After an oral glucose challenge (5 mL/kg of an aqueous solution of 20% glucose), blood samples were collected from the tail vein of each animal into heparin-containing tubes at serial time points for 2 h. Plasma was prepared immediately, frozen, and stored at -20°C prior to analysis.
Plasma DPP-IV activity was determined as described above. A 20 μL plasma sample was mixed with 5 μL of reaction buffer (140 mM NaCl, and 10 mM KCl, 25 mM Tris-HCl, pH 7.4, 1% bovine serum albumin) and 10 μL of buffer containing 60 μM H-Gly-Pro-AMC. After incubation at room temperature for 30 min, the reaction was stopped by the addition of 20 μL of 25% aqueous acetic acid and fluorescence was measured using an excitation wavelength of 360 nm and an emission wavelength of 460 nm.

plasma insulin = assay: Plasma insulin after glucose challenge in OGTT; format: in vivo; details: Wistar/ST rats, oral 4b, 10 min after glucose challenge
Description: (§5) After 30 min (t = 0), oral glucose challenges (1 g/kg) were conducted and then plasma DPP-IV activities and blood glucose levels were monitored at various intervals over a 2 h period.
as §4
(§6) Plasma glucose and insulin were determined with a glucometer (Glutest Pro; SKK, Japan) and a rat insulin ELISA kit (Shibayagi, Japan), respectively, according to the manufacturer's instructions. Statistical analyses were performed using Microsoft Excel. Individual comparisons among more than two experimental groups were assessed using ANOVA, with Fisher's Least Significant Difference post hoc test. Differences were considered significant at P values < 0.05. Analysis of dose-response data was performed by Dunnett's test.

blood glucose = assay: Oral glucose tolerance test (OGTT), blood glucose; format: in vivo; details: Wistar/ST rats, 1 mg/kg oral, glucose challenge 1 g/kg
Description: as §5, §4, §6

[3] = Metabolic stability in rat liver microsomes; format: in vitro ADME; details: 5 μM
Description: as §1, §2, §3

human plasma DPP-IV = molecular target: T2, human plasma DPP-IV (Homo sapiens, UniProt P27487); assay: IC50 with respect to human plasma DPP-IV (separate experiments); format: biochemical; details: separate experiments (footnote a)
T2 construct: from tissue; host or cells: human plasma
From the text: Table 1 Inhibition of DPP-IV, -8 and -9 activity by 1,3-dihydroisoindoline derivatives 4, their metabolic clearance by rat and human and their enzyme-inducing (CYP1A, CYP2B, and CYP3A) capacity | column: IC50 (nM) / DPP-IV

[4] = Further PK studies: metabolite identification by LC-MS, in vivo conversion of 4b into 4l; details: rats, after dosing of 4b
Description: Therefore, further PK studies were conducted. A major metabolite was detected by LC-MS analysis and its structure was determined by comparison of the LC retention time and MS/MS fragmentation pattern with synthetic standards.

[5] = Sprague-Dawley, rat, plasma, po 3 mg/kg
[6] = Sprague-Dawley, rat, plasma, po 10 mg/kg

T1 sequence (P14740 37-767 limits assumed): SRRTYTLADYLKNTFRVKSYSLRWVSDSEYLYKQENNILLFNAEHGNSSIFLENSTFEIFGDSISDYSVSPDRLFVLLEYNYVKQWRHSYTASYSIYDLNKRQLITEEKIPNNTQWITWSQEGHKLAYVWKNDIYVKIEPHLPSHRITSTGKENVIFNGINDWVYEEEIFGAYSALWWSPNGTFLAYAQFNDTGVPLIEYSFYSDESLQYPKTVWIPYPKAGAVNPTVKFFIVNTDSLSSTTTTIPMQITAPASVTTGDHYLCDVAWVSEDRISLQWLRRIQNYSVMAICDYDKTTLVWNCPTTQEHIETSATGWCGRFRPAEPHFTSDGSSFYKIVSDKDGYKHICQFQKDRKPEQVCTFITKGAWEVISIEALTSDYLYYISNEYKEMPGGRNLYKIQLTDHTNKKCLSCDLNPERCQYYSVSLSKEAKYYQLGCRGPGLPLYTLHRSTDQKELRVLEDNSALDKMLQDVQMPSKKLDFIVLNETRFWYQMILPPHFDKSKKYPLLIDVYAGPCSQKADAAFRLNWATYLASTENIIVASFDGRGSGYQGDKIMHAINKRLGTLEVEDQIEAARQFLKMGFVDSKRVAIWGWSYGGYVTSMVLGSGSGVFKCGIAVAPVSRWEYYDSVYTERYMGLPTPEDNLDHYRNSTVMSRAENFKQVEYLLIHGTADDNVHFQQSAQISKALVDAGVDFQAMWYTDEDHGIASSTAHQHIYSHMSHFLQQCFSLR
T2 sequence (P27487 39-766 limits assumed): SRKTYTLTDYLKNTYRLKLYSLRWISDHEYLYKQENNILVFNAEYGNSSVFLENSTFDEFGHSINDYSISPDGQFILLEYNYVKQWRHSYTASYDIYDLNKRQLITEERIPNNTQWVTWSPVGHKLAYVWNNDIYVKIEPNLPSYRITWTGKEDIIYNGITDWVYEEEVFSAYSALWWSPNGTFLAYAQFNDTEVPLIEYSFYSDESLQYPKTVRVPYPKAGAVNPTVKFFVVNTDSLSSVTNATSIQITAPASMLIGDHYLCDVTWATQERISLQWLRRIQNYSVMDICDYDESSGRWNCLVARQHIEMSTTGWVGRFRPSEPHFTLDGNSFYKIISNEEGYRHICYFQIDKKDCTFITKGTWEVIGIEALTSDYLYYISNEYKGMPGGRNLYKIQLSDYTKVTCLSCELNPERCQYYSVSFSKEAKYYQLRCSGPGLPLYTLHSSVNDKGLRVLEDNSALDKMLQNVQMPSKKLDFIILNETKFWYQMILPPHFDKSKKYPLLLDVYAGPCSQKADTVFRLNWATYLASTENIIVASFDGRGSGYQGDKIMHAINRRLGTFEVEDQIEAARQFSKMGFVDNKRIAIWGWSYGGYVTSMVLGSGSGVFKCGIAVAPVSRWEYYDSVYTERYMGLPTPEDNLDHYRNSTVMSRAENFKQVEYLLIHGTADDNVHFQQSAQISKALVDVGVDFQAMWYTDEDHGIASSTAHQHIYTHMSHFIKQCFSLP

- AUC(0-t) ([1]; Sprague-Dawley, rat, plasma, iv 1 mg/kg): 39 ng·h/mL
- clearance ([1]; Sprague-Dawley, rat, plasma, iv 1 mg/kg, read-out: CL p (converted)): 437 mL/min/kg
- Vd ([1]; Sprague-Dawley, rat, plasma, iv 1 mg/kg, read-out: Vd ss): 8.28 L/kg
- Cmax [1, 5]: 37 ng/mL
- Tmax [1, 5]: 15 min
- AUC(0-t) [1, 5]: 33 ng·h/mL
- Cmax [1, 6]: 229 ng/mL
- Tmax [1, 6]: 15 min
- AUC(0-t) [1, 6]: 156 ng·h/mL
- t 1/2α ([1]; iv 1 mg/kg, first t 1/2 column): 3.72 min
- t 1/2α ([1]; iv 1 mg/kg, second t 1/2): 16.2 min
- BA ([1]; po 3 mg/kg): 27.7%
- t 1/2α ([1]; po 3 mg/kg, second t 1/2): 82.2 min
- BA ([1]; po 10 mg/kg): 39.9%
- t 1/2α ([1]; po 10 mg/kg, second t 1/2): 90 min
- CLint scaled at 5 μM [2]: 1.67 mL/min/kg
- inhibition of DPP-IV estimated from the PK profiles (plasma DPP-IV; 3-10 mg/kg doses, for several hours, estimated from the PK profiles): > 50%
- inhibition at 0.1 mg/kg (plasma DPP-IV; rat, Wistar/ST rats, 0.1 mg/kg oral): 30%
- inhibition at 1 mg/kg (plasma DPP-IV; rat, Wistar/ST rats, over 2 h period after glucose challenge, read-out: inhibition of plasma DPP-IV activity maintained throughout the study): > 90%
- inhibition at 1 mg/kg (plasma DPP-IV; rat, Wistar/ST rats, within 30 min post-dose, read-out: inhibition of plasma DPP-IV activity): 95%
- CL'int Rat [3]: 38.3 mL/min/kg
SMILES: Cc1ccc2c(c1)CN(C(=O)CC(C)(C)NCC(=O)N1CCC[C@H]1C#N)C2 [Compound 4b, (S)-1-(2-(2-Methyl-4-(5-methylisoindolin-2-yl)-4-oxobutan-2-ylamino)acetyl)pyrrolidine-2-carbonitrile]
- Enzyme induction (rat) CYP3A (CYP3A): - (Any test compound causing a dose-dependent change equal to or greater than 10% of the positive control (see formula below) was considered an enzyme inducer)
- insulin levels at 10 min post-challenge (plasma insulin): increased
- reduction of glucose levels in OGTT (blood glucose): 18%

- pIC50 (human plasma DPP-IV): 8.72
- in vivo conversion (of 4b into metabolite 4l) [4]: 60%
SMILES: CC(C)(CC(=O)N1Cc2ccc(CO)cc2C1)NCC(=O)N1CCC[C@H]1C#N [Compound 4l, (S)-1-(2-(4-(5-(Hydroxymethyl)isoindolin-2-yl)-2-methyl-4-oxobutan-2-ylamino)acetyl)pyrrolidine-2-carbonitrile]
